According to a melting point compilation (Tetko et al.; mined from patent text by program, amines drawn as free bases though some values may be those of a salt):

melting point [°C]	Structure (SMILES)
212 to 214	Cc1cccc(N2C(=O)NCc3cccnc32)c1
171 to 172	COc1ccc(OCC(O)CN2CCN(c3ccccc3C(=O)O)CC2)c(C(C)(C)C)c1 (stereo unspecified)
121 to 124	CSc1ccc(NC(=N)c2ccc(F)cc2)cc1
170 to 171	Cn1cc(C2=C(c3cccc(NCCO)c3)C(=O)NC2=O)c2ccccc21
129 to 132	CCOC(=O)Cc1cccc2c(-c3ccc(N)cc3)nccc12
203 to 205	COc1cccc2c3c(c(=O)[nH]c12)CCCN3c1ccccc1C
211 to 213	CC(=O)NCCSc1ccnc(CSc2nc3ccccc3[nH]2)c1C
72 to 73.5	CCOc1ccc(Oc2ccc(OCc3cc(F)ccc3F)cc2)c(N)c1
69 to 72	CC(N1CCN(c2ncn(Cc3ccc(C(F)(F)F)cc3)n2)CC1)C(O)(Cn1cncn1)c1ccc(F)cc1F (stereo unspecified)
243	N#Cc1c(Cl)c2cc(Cl)ccc2n(Cc2ccccc2)c1=O
172	CNC(=O)N(CCN1CCC(Nc2nc3ccccc3n2Cc2ccc(F)cc2)CC1)c1nccs1
158 to 160	CC(=O)NC1CCN(c2cccc(Br)n2)CC1
216 to 218	CN(Cc1cccc2c1CN(C1CCC(=O)NC1=O)C2=O)C(=O)Nc1ccc2ccccc2c1 (stereo unspecified)
68 to 69	COc1ccc(C(=O)Cc2ccccc2)cc1
207 to 211	CCCC(=O)Oc1ccc2nc(NC(=O)Nc3ccccc3)sc2c1
65 to 67	COC(=O)Cc1nc(-c2ccccc2)c(-c2ccccc2)s1
244	Cc1nc(-c2ccc(C(F)(F)F)cc2)[nH]c1CN1CCN(C(c2ccccc2)c2ccccc2)CC1
98 to 99	Cc1nccn1-c1nc(-c2ccc(Cl)cc2)c(CCCCO)s1
75	CS(=O)(=O)NC(=O)CC1(c2ccc(OCc3ccc4ccccc4n3)cc2)CCCC1
176 to 177	COc1cccc(-c2c(Cl)c(CN3CCOCC3)nc3sc4c(c23)CCN(Cc2ccccc2)C4)c1OC
184 to 187	Cc1cccc(COc2cccnc2NC(=S)Nc2ccc(Cl)cc2)c1F
179 to 181	O=C(NCc1ccccn1)c1ccc(N2CCN(C(=O)c3ccccc3C(F)(F)F)CC2)nn1
161 to 163	O=C1C(c2ccc3c(c2)OCO3)c2ccccc2N1Cc1ccc(Cl)cc1 (stereo unspecified)
229 to 233	Cc1nc(-c2ccc(F)cc2)c(-c2ccc(S(C)(=O)=O)cc2)s1

Continued, molecule first:

Structure (SMILES)	melting point [°C]
CC(=O)c1ccc2c(c1)CC(=O)N2CC(F)(F)F	170 to 171
CC1(C)Oc2ccc(S(=O)(=O)c3ccc(C#N)cc3)cc2[C@@H](N2CCCC2=O)[C@@H]1O (relative stereo)	234 to 235
CC(=NOc1ccc(F)cc1)c1ccc(C(F)(F)F)cc1NS(=O)(=O)C(F)(F)F	95 to 96
Cc1c(Cl)cc(O)cc1Cl	92 to 93
C#CCOc1ccc(C2=NC3=CCNC(=O)C3=N2)c(OC)c1	178 to 180
O=C(Oc1cc(OC(=O)c2ccccc2)c(C(=O)C=Cc2ccc(O)cc2)c(OC(=O)c2ccccc2)c1)c1ccccc1	198 to 200
CCc1noc(-c2ncn(-c3cccc(Oc4ccc([N+](=O)[O-])cc4)c3)c2COC)n1	126 to 127
COc1ccc(-c2ccc(C(C)=O)cc2)cc1	156
COC1CCc2[nH]c3ccccc3c2C1 (stereo unspecified)	105
C[C@@H](Cc1c2n(c3ccc(OC4CC4)cc13)CCC2)NC(=O)OC(C)(C)C	83 to 84
CCC(=O)Oc1cc(OC)cc(OC)c1C(=O)C=Cc1ccccc1	116 to 117
COc1cc(C(C)(C)C)c(OC(C)=O)c(C(C)(C)C)c1	96.6
CC(c1cccc2c1C(=O)NS2(=O)=O)[Si](C)(C)C (stereo unspecified)	123 to 125
CCCN(CCC)C(=O)n1cnc(S(=O)(=O)C(C)C)n1	61
COc1ccc2c3c(c(=O)oc2c1)CNCC3	171 to 180
CC(=O)Nc1nc2c(s1)-c1nc(-c3ccccc3)ncc1C2	> 300
COC(=O)CCS(=O)(=O)c1cc(C(C)(C)C)c(O)c(C(C)(C)C)c1	109 to 111
CC(C)COc1ccccc1C1=NC(=O)C2=NC=NC2=N1	272 to 273
CCOc1cc(C(=O)N2CCc3cc(O)ccc3C2)cc(OCC)c1OCC	158
COc1cc(C(=O)OC2CC3C(=O)NC4(C(=O)NS(=O)(=O)C5CC5)CC4C=CCCCCCC(NC(=O)OC(C)(C)C)C(=O)N3C2)n(OC)n1 (stereo unspecified)	149 to 151
NC1CNC(=O)C12CC2 (stereo unspecified)	97 to 99
FC(F)(F)Oc1ccc2[nH]c(-c3cccnc3)nc2c1	197 to 199
CSc1ccc(-c2coc3ccc(-c4nnc(C)o4)cc23)cc1C	185 to 186
CCCCCCCCCCCCCCOCc1ccc(C=C2C(=O)C3(C)CCC2C3(C)C)cc1 (stereo unspecified)	35

Structure (SMILES)	melting point [°C]
Nc1ccc(Cl)cc1C(=O)c1cccc(Cl)c1	118 to 119
N#Cc1cc(O)c(O)c(C#N)c1CCC(=O)O	210 to 220
CCN(CC)CC(=O)Nc1ccc2c(c1)C(=O)c1cc(NC(=O)CN(CC)CC)ccc1C2=O	241
ClCSc1c(Cl)c(Cl)cc(Cl)c1Cl	81 to 82
CCSC1(S)CCC2C3CCC4=CC(=O)C=CC4(C)C3(F)C(O)CC21C (stereo unspecified)	239 to 242
Cc1cc(S(N)(=O)=O)ccc1NC(=O)Cc1ccc(Oc2cc(Cl)cc(C#N)c2)c(Br)c1	215 to 216
CCC(Oc1ccc([N+](=O)[O-])cc1)C(=O)NCc1ccccc1OC (stereo unspecified)	109 to 112
CS(=O)(=O)Nc1ccc(C#N)cc1Nc1ccc(F)cc1F	167 to 169
CCn1ncc2c(NCc3ccc(OC)cc3)c3cc(OC)ccc3nc21	263 to 265
Cc1cn(-c2cc(Br)c(N)c(C(F)(F)F)c2)c(C)n1	149
CC(C)=NOCc1nc2c(N)nc(C)c(C)c2n1CCCCNS(C)(=O)=O	157 to 159
CCOC(=O)C(C(=O)Nc1ccc(OC)cc1)(c1ccccc1)c1ccccc1	89 to 91
N#Cc1ccc(NC(=N)Nc2ccc(C#N)cc2)cc1	195 to 200
CCCN(CCC)c1nc2c(c(-c3c(C)cc(C)cc3C)cn2C)c(=O)n1C	100 to 102
CC(=O)NCC(NC(C)=O)c1ccccc1 (stereo unspecified)	155 to 156
CS(=O)(=O)c1ccc(-c2n[nH]c(C(F)(F)F)c2-c2ccc(F)cc2)cc1	219 to 220
S=C1Nc2ccccc2N2CCc3cccc1c32	185 to 186
CC(=O)NCCc1c[nH]c2ncccc12	168
CCOC(=O)N1CCC2C(O)CCCC21 (stereo unspecified)	153 to 155
O=C1NC(=S)C(c2cccc(Cl)c2)C1c1ccccc1 (stereo unspecified)	104 to 106
CCCCN(CCCC)c1ccc(C2(c3cc(Nc4ccccc4)ccc3OC)OC(=O)c3ccccc32)c(O)c1 (stereo unspecified)	148 to 152
CN1C(=O)C2(COc3cc4c(cc32)OCCO4)c2c(C(=O)NC3CCCCC3)cccc21 (stereo unspecified)	139 to 140
CNC(=O)Nc1scc(C(C)(C)C)c1C#N	212 to 214
